IC50 data for 27 compounds are collected here from US10906915B2, “Substituted pyrazoloazepin-4-ones and their use as phosphodiesterase inhibitors” (LEO Pharma A/S, priority 2016, dated 2021).

The target in the experiment is human PDE4D catalytic domain (UniProt no. Q08499) (Homo sapiens (Human), UniProt Q08499). Kind of experiment: PDE4 assay (TR-FRET, FAM-cAMP cleavage). In kind it is biochemical. The note with it: human PDE4D catalytic domain; molar concentration giving 50% inhibition of substrate cleavage; read-out: PDE4 IC50 range. Put shortly: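 PDE4D catalytic domain ([…]) was incubated with unlabelled cAMP plus FAM-cAMP and titrated compound, stopped with binding buffer of metal-ion nanoparticles and Tb donor. AMP generation read by TR-FRET; IC50 as 50% inhibition of cleavage versus controls, reported as nM ranges.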
Chain of human PDE4D catalytic domain (Q08499 380-740 limits assumed): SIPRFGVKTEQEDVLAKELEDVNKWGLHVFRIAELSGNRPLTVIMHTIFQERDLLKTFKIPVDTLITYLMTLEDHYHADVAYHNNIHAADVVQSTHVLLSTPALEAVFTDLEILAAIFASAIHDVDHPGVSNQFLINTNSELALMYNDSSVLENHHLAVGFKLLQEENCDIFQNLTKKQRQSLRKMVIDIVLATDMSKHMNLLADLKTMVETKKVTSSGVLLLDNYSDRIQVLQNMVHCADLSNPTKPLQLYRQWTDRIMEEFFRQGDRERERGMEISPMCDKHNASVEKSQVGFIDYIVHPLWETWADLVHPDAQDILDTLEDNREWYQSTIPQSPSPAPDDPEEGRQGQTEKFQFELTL
Background: In TR-FRET formats the signal depends on donor and acceptor labels being close together.
Regarding `CCc1nn(C[C@@H](C)COC(=O)c2ccc(F)c(OC)c2)c2c1C(=O)NCC1(CCOCC1)C2` [Example 193, [(2R)-3-(3-ethyl-4-oxo-spiro[6,8-dihydro-5H-pyrazolo[4,3-c]azepine-7,4′-tetrahydropyran]-1-yl)-2-methyl-propyl] 4-fluoro-3-methoxy-benzoate], the IC50 was less than 100 nM.

Turning to `CCc1nn(C[C@@H](C)COC(=O)c2c(F)cccc2OC)c2c1C(=O)NCC1(CCOCC1)C2` [Example 194, [(2R)-3-(3-ethyl-4-oxo-spiro[6,8-dihydro-5H-pyrazolo[4,3-c]azepine-7,4′-tetrahydropyran]-1-yl)-2-methyl-propyl] 2-fluoro-6-methoxy-benzoate], the IC50 was less than 100 nM.

As to `CCc1nn(C[C@@H](C)COC(=O)c2ccc(F)cc2OC)c2c1C(=O)NCC1(CCOCC1)C2` [Example 195, [(2R)-3-(3-ethyl-4-oxo-spiro[6,8-dihydro-5H-pyrazolo[4,3-c]azepine-7,4′-tetrahydropyran]-1-yl)-2-methyl-propyl] 4-fluoro-2-methoxy-benzoate], the IC50 was less than 100 nM.

Turning to `CCc1nn(C[C@@H](C)COC(=O)c2ccc(Cl)cc2C)c2c1C(=O)NCC1(CCOCC1)C2` [Example 196, [(2R)-3-(3-ethyl-4-oxo-spiro[6,8-dihydro-5H-pyrazolo[4,3-c]azepine-7,4′-tetrahydropyran]-1-yl)-2-methyl-propyl] 4-chloro-2-methyl-benzoate], the IC50 is less than 100 nM.

For the compound `CCc1nn(C[C@@H](C)COC(=O)c2ccc(C(F)F)cc2)c2c1C(=O)NCC1(CCOCC1)C2` [Example 197, [(2R)-3-(3-ethyl-4-oxo-spiro[6,8-dihydro-5H-pyrazolo[4,3-c]azepine-7,4′-tetrahydropyran]-1-yl)-2-methyl-propyl] 4-(difluoromethyl)benzoate], the IC50 was less than 100 nM.

For `CCc1nn(C[C@@H](C)COC(=O)c2cccc(Cl)c2F)c2c1C(=O)NCC1(CCOCC1)C2` [Example 198, [(2R)-3-(3-ethyl-4-oxo-spiro[6,8-dihydro-5H-pyrazolo[4,3-c]azepine-7,4′-tetrahydropyran]-1-yl)-2-methyl-propyl] 3-chloro-2-fluoro-benzoate], the IC50 was less than 100 nM.

For the compound `CCc1nn(C[C@@H](C)COC(=O)c2ccc(Cl)c(F)c2)c2c1C(=O)NCC1(CCOCC1)C2` [Example 199, [(2R)-3-(3-ethyl-4-oxo-spiro[6,8-dihydro-5H-pyrazolo[4,3-c]azepine-7,4′-tetrahydropyran]-1-yl)-2-methyl-propyl] 4-chloro-3-fluoro-benzoate], the IC50 is less than 100 nM.

Regarding `CCc1nn(C[C@@H](C)COC(=O)c2cc(F)ccc2Cl)c2c1C(=O)NCC1(CCOCC1)C2` [Example 200, [(2R)-3-(3-ethyl-4-oxo-spiro[6,8-dihydro-5H-pyrazolo[4,3-c]azepine-7,4′-tetrahydropyran]-1-yl)-2-methyl-propyl] 2-chloro-5-fluoro-benzoate], the IC50 was less than 100 nM.

In the case of `CCc1nn(C[C@@H](C)COC(=O)c2cccc(F)c2Cl)c2c1C(=O)NCC1(CCOCC1)C2` [Example 201, [(2R)-3-(3-ethyl-4-oxo-spiro[6,8-dihydro-5H-pyrazolo[4,3-c]azepine-7,4′-tetrahydropyran]-1-yl)-2-methyl-propyl] 2-chloro-3-fluoro-benzoate], the IC50 was less than 100 nM.

As for `CCc1nn(C[C@@H](C)COC(=O)c2cc(Cl)ccc2F)c2c1C(=O)NCC1(CCOCC1)C2` [Example 202, [(2R)-3-(3-ethyl-4-oxo-spiro[6,8-dihydro-5H-pyrazolo[4,3-c]azepine-7,4′-tetrahydropyran]-1-yl)-2-methyl-propyl] 5-chloro-2-fluoro-benzoate], the IC50 was less than 100 nM.

For the compound `CCc1nn(C[C@@H](C)COC(=O)c2c(F)cccc2Cl)c2c1C(=O)NCC1(CCOCC1)C2` [Example 203, [(2R)-3-(3-ethyl-4-oxo-spiro[6,8-dihydro-5H-pyrazolo[4,3-c]azepine-7,4′-tetrahydropyran]-1-yl)-2-methyl-propyl] 2-chloro-6-fluoro-benzoate], the IC50 was less than 100 nM.

With `CCc1nn(C[C@@H](C)COC(=O)c2ccc(F)c(Cl)c2)c2c1C(=O)NCC1(CCOCC1)C2` [Example 204, [(2R)-3-(3-ethyl-4-oxo-spiro[6,8-dihydro-5H-pyrazolo[4,3-c]azepine-7,4′-tetrahydropyran]-1-yl)-2-methyl-propyl] 3-chloro-4-fluoro-benzoate], the IC50 is less than 100 nM.

As to `CCc1nn(C[C@@H](C)COC(=O)c2ccc(Cl)cc2F)c2c1C(=O)NCC1(CCOCC1)C2` [Example 205, [(2R)-3-(3-ethyl-4-oxo-spiro[6,8-dihydro-5H-pyrazolo[4,3-c]azepine-7,4′-tetrahydropyran]-1-yl)-2-methyl-propyl] 4-chloro-2-fluoro-benzoate], the IC50 is less than 100 nM.

On to `CCc1nn(C[C@@H](C)COC(=O)c2ccc(OC)c(Cl)c2)c2c1C(=O)NCC1(CCOCC1)C2` [Example 206, [(2R)-3-(3-ethyl-4-oxo-spiro[6,8-dihydro-5H-pyrazolo[4,3-c]azepine-7,4′-tetrahydropyran]-1-yl)-2-methyl-propyl] 3-chloro-4-methoxy-benzoate], for which the IC50 was less than 100 nM.

Consider `CCc1nn(C[C@@H](C)COC(=O)c2cccc(OC)c2Cl)c2c1C(=O)NCC1(CCOCC1)C2` [Example 207, [(2R)-3-(3-ethyl-4-oxo-spiro[6,8-dihydro-5H-pyrazolo[4,3-c]azepine-7,4′-tetrahydropyran]-1-yl)-2-methyl-propyl] 2-chloro-3-methoxy-benzoate], for which the IC50 is less than 100 nM.

On to `CCc1nn(C[C@@H](C)COC(=O)c2ccc(Cl)c(OC)c2)c2c1C(=O)NCC1(CCOCC1)C2` [Example 208, [(2R)-3-(3-ethyl-4-oxo-spiro[6,8-dihydro-5H-pyrazolo[4,3-c]azepine-7,4′-tetrahydropyran]-1-yl)-2-methyl-propyl] 4-chloro-3-methoxy-benzoate], for which the half-maximal inhibitory concentration (IC50) was less than 100 nM.

For the compound `CCc1nn(C[C@@H](C)COC(=O)c2cccc(Cl)c2OC)c2c1C(=O)NCC1(CCOCC1)C2` [Example 209, [(2R)-3-(3-ethyl-4-oxo-spiro[6,8-dihydro-5H-pyrazolo[4,3-c]azepine-7,4′-tetrahydropyran]-1-yl)-2-methyl-propyl] 3-chloro-2-methoxy-benzoate], the IC50 is less than 100 nM.

For `CCc1nn(C[C@@H](C)COC(=O)c2cc(Cl)ccc2OC)c2c1C(=O)NCC1(CCOCC1)C2` [Example 210, [(2R)-3-(3-ethyl-4-oxo-spiro[6,8-dihydro-5H-pyrazolo[4,3-c]azepine-7,4′-tetrahydropyran]-1-yl)-2-methyl-propyl] 5-chloro-2-methoxy-benzoate], the IC50 is less than 100 nM.

Regarding `CCc1nn(C[C@@H](C)COC(=O)c2ccc(Cl)cc2OC)c2c1C(=O)NCC1(CCOCC1)C2` [Example 211, [(2R)-3-(3-ethyl-4-oxo-spiro[6,8-dihydro-5H-pyrazolo[4,3-c]azepine-7,4′-tetrahydropyran]-1-yl)-2-methyl-propyl] 4-chloro-2-methoxy-benzoate], the IC50 was less than 100 nM.

In the case of `CCc1nn(C[C@@H](C)COC(=O)c2ccc(C(F)(F)F)cc2)c2c1C(=O)NCC1(CCOCC1)C2` [Example 212, [(2R)-3-(3-ethyl-4-oxo-spiro[6,8-dihydro-5H-pyrazolo[4,3-c]azepine-7,4′-tetrahydropyran]-1-yl)-2-methyl-propyl] 4-(trifluoromethyl)benzoate], the IC50 is less than 100 nM.

Consider `CCc1nn(C[C@@H](C)COC(=O)c2cccc(S(C)(=O)=O)c2)c2c1C(=O)NCC1(CCOCC1)C2` [Example 213, [(2R)-3-(3-ethyl-4-oxo-spiro[6,8-dihydro-5H-pyrazolo[4,3-c]azepine-7,4′-tetrahydropyran]-1-yl)-2-methyl-propyl] 3-methylsulfonylbenzoate], for which the IC50 is less than 100 nM.

As to `CCc1nn(C[C@@H](C)COC(=O)c2ccccc2S(C)(=O)=O)c2c1C(=O)NCC1(CCOCC1)C2` [Example 214, [(2R)-3-(3-ethyl-4-oxo-spiro[6,8-dihydro-5H-pyrazolo[4,3-c]azepine-7,4′-tetrahydropyran]-1-yl)-2-methyl-propyl] 2-methylsulfonylbenzoate], the IC50 is less than 100 nM.

With `CCc1nn(C[C@@H](C)COC(=O)c2ccc(S(N)(=O)=O)cc2)c2c1C(=O)NCC1(CCOCC1)C2` [Example 215, [(2R)-3-(3-ethyl-4-oxo-spiro[6,8-dihydro-5H-pyrazolo[4,3-c]azepine-7,4′-tetrahydropyran]-1-yl)-2-methyl-propyl] 4-sulfamoylbenzoate], the IC50 was less than 100 nM.

Turning to `CCc1nn(C[C@@H](C)COC(=O)c2cccc(C(F)(F)F)c2C)c2c1C(=O)NCC1(CCOCC1)C2` [Example 217, [(2R)-3-(3-ethyl-4-oxo-spiro[6,8-dihydro-5H-pyrazolo[4,3-c]azepine-7,4′-tetrahydropyran]-1-yl)-2-methyl-propyl] 2-methyl-3-(trifluoromethyl)benzoate], the IC50 is less than 100 nM.

With `CCc1nn(C[C@@H](C)COC(=O)c2cc(C(F)(F)F)ccc2C)c2c1C(=O)NCC1(CCOCC1)C2` [Example 218, [(2R)-3-(3-ethyl-4-oxo-spiro[6,8-dihydro-5H-pyrazolo[4,3-c]azepine-7,4′-tetrahydropyran]-1-yl)-2-methyl-propyl] 2-methyl-5-(trifluoromethyl)benzoate], the IC50 was less than 100 nM.

For `CCc1nn(C[C@@H](C)COC(=O)c2ccc(C(F)(F)F)c(F)c2)c2c1C(=O)NCC1(CCOCC1)C2` [Example 219, [(2R)-3-(3-ethyl-4-oxo-spiro[6,8-dihydro-5H-pyrazolo[4,3-c]azepine-7,4′-tetrahydropyran]-1-yl)-2-methyl-propyl] 3-fluoro-4-(trifluoromethyl)benzoate], the IC50 is less than 100 nM.

For the compound `CCc1nn(C[C@@H](C)COC(=O)c2cc(C(F)(F)F)ccc2F)c2c1C(=O)NCC1(CCOCC1)C2` [Example 220, [(2R)-3-(3-ethyl-4-oxo-spiro[6,8-dihydro-5H-pyrazolo[4,3-c]azepine-7,4′-tetrahydropyran]-1-yl)-2-methyl-propyl] 2-fluoro-5-(trifluoromethyl)benzoate], the IC50 is less than 100 nM.

In general, IC50 refers to the concentration needed to halve the response being measured.
